Key:
Experiment in all cases: relative viability (nuclei count vs DMSO), 5 days (fraction); higher = more cells survive
CUDC-101 + Palbociclib = compound: C#Cc1cccc(Nc2ncnc3cc(OC)c(OCCCCCCC(=O)NO)cc23)c1 [CUDC-101] + CC(=O)c1c(C)c2cnc(Nc3ccc(N4CCNCC4)cn3)nc2n(C2CCCC2)c1=O [Palbociclib] (partner 0.5 µM)
Procedure, shortened: (§1)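 Relative viability equals treated-well nuclei counts divided by vehicle-well nuclei counts. Counts came from 4× images of lung cancer cell lines grown in 1536-well plates for 5 days after pin-tool dosing on the day after seeding. Dosing used one drug alone or a fixed anchor-drug dose plus five library-drug doses (not always all listed) in √10 steps, and values are medians of duplicate plates.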

Vandetanib + Luminespib = compound: COc1cc2/c(=N/c3ccc(Br)cc3F)nc[nH]c2cc1OCC1CCN(C)CC1 [Vandetanib] + CCNC(=O)c1noc(-c2cc(C(C)C)c(O)cc2O)c1-c1ccc(CN2CCOCC2)cc1 [Luminespib] (partner 0.01 µM)
Procedure, shortened: as §1

[1] = compound: C1=CC=C2C(=C1)N=C(S2)C(C#N)C3=NC(=NC=C3)NCCC4=CN=CC=C4 + CS(=O)(=O)CCNCc1ccc(-c2ccc3ncnc(Nc4ccc(OCc5cccc(F)c5)c(Cl)c4)c3c2)o1 [Lapatinib] (partner 2 µM)
Procedure, shortened: as §1

[2] = compound: C1=CC=C2C(=C1)N=C(S2)C(C#N)C3=NC(=NC=C3)NCCC4=CN=CC=C4 + Cc1nc(NC(=O)N2CCC[C@H]2C(N)=O)sc1-c1ccnc(C(C)(C)C(F)(F)F)c1 [Alpelisib] (partner 2 µM)
Procedure, shortened: as §1

A-427 gave a relative viability (CUDC-101 + Palbociclib; first compound 0.01 µM) of 0.562, a relative viability (CUDC-101 + Palbociclib; first compound 0.03162 µM) of 0.538 and a relative viability (CUDC-101 + Palbociclib; first compound 0.1 µM) of 0.501. It also gave a relative viability (CUDC-101 + Palbociclib; first compound 0.3162 µM) of 0.496, a relative viability (CUDC-101 + Palbociclib; first compound 1 µM) of 0.487 and a relative viability (Vandetanib + Luminespib; first compound 0.02 µM) of 0.892. For the same cell line, the relative viability (Vandetanib + Luminespib; first compound 0.06325 µM) was 0.822, the relative viability (Vandetanib + Luminespib; first compound 0.2 µM) was 0.927 and the relative viability (Vandetanib + Luminespib; first compound 0.6325 µM) was 1.08. It also gave a relative viability (Vandetanib + Luminespib; first compound 2 µM) of 0.926, a relative viability ([1]; first compound 0.005 µM) of 0.78 and a relative viability ([1]; first compound 0.01581 µM) of 0.889. It also gave a relative viability ([1]; first compound 0.05 µM) of 1.01, a relative viability ([1]; first compound 0.1581 µM) of 1.12 and a relative viability ([1]; first compound 0.5 µM) of 1.08. The relative viability ([2]; first compound 0.005 µM) was 1.08, the relative viability ([2]; first compound 0.01581 µM) was 1.01 and the relative viability ([2]; first compound 0.05 µM) was 0.996. It also gave a relative viability ([2]; first compound 0.1581 µM) of 1.09 and a relative viability ([2]; first compound 0.5 µM) of 1.16.
NCI-H1755 gave a relative viability (CUDC-101 + Palbociclib; first compound 0.01 µM) of 0.431, a relative viability (CUDC-101 + Palbociclib; first compound 0.03162 µM) of 0.472 and a relative viability (CUDC-101 + Palbociclib; first compound 0.1 µM) of 0.507. It also gave a relative viability (CUDC-101 + Palbociclib; first compound 0.3162 µM) of 0.469, a relative viability (CUDC-101 + Palbociclib; first compound 1 µM) of 0.435 and a relative viability (Vandetanib + Luminespib; first compound 0.02 µM) of 0.396. It also gave a relative viability (Vandetanib + Luminespib; first compound 0.06325 µM) of 0.43, a relative viability (Vandetanib + Luminespib; first compound 0.2 µM) of 0.409 and a relative viability (Vandetanib + Luminespib; first compound 0.6325 µM) of 0.783. For the same cell line, the relative viability (Vandetanib + Luminespib; first compound 2 µM) was 0.353, the relative viability ([1]; first compound 0.005 µM) was 0.874 and the relative viability ([1]; first compound 0.01581 µM) was 1.08. The relative viability ([1]; first compound 0.05 µM) was 1, the relative viability ([1]; first compound 0.1581 µM) was 1.17 and the relative viability ([1]; first compound 0.5 µM) was 0.78. The relative viability ([2]; first compound 0.005 µM) was 0.839, the relative viability ([2]; first compound 0.01581 µM) was 1 and the relative viability ([2]; first compound 0.05 µM) was 0.959. For the same cell line, the relative viability ([2]; first compound 0.1581 µM) was 1.03 and the relative viability ([2]; first compound 0.5 µM) was 0.849.
Work on NCI-H838 yielded a relative viability (CUDC-101 + Palbociclib; first compound 0.01 µM) of 0.213, a relative viability (CUDC-101 + Palbociclib; first compound 0.03162 µM) of 0.221 and a relative viability (CUDC-101 + Palbociclib; first compound 0.1 µM) of 0.233. For the same cell line, the relative viability (CUDC-101 + Palbociclib; first compound 0.3162 µM) was 0.26, the relative viability (CUDC-101 + Palbociclib; first compound 1 µM) was 0.214 and the relative viability (Vandetanib + Luminespib; first compound 0.02 µM) was 0.354. The relative viability (Vandetanib + Luminespib; first compound 0.06325 µM) was 0.353, the relative viability (Vandetanib + Luminespib; first compound 0.2 µM) was 0.145 and the relative viability (Vandetanib + Luminespib; first compound 0.6325 µM) was 0.333. It also gave a relative viability (Vandetanib + Luminespib; first compound 2 µM) of 0.278, a relative viability ([1]; first compound 0.005 µM) of 0.916 and a relative viability ([1]; first compound 0.01581 µM) of 0.962. It also gave a relative viability ([1]; first compound 0.05 µM) of 1.12, a relative viability ([1]; first compound 0.1581 µM) of 1.15 and a relative viability ([1]; first compound 0.5 µM) of 0.95. It also gave a relative viability ([2]; first compound 0.005 µM) of 0.841, a relative viability ([2]; first compound 0.01581 µM) of 0.965 and a relative viability ([2]; first compound 0.05 µM) of 0.959. For the same cell line, the relative viability ([2]; first compound 0.1581 µM) was 0.961 and the relative viability ([2]; first compound 0.5 µM) was 0.852.
ABC-1 showed a relative viability (CUDC-101 + Palbociclib; first compound 0.01 µM) of 0.647, a relative viability (CUDC-101 + Palbociclib; first compound 0.03162 µM) of 0.682 and a relative viability (CUDC-101 + Palbociclib; first compound 0.1 µM) of 0.864. For the same cell line, the relative viability (CUDC-101 + Palbociclib; first compound 0.3162 µM) was 0.587, the relative viability (CUDC-101 + Palbociclib; first compound 1 µM) was 0.454 and the relative viability (Vandetanib + Luminespib; first compound 0.02 µM) was 0.673. For the same cell line, the relative viability (Vandetanib + Luminespib; first compound 0.06325 µM) was 0.616, the relative viability (Vandetanib + Luminespib; first compound 0.2 µM) was 0.401 and the relative viability (Vandetanib + Luminespib; first compound 0.6325 µM) was 1.2. The relative viability (Vandetanib + Luminespib; first compound 2 µM) was 0.594, the relative viability ([1]; first compound 0.005 µM) was 1.08 and the relative viability ([1]; first compound 0.01581 µM) was 1.26. It also gave a relative viability ([1]; first compound 0.05 µM) of 1.21, a relative viability ([1]; first compound 0.1581 µM) of 1.02 and a relative viability ([1]; first compound 0.5 µM) of 1.21. For the same cell line, the relative viability ([2]; first compound 0.005 µM) was 1.05, the relative viability ([2]; first compound 0.01581 µM) was 1.05 and the relative viability ([2]; first compound 0.05 µM) was 1.2. The relative viability ([2]; first compound 0.1581 µM) was 0.961 and the relative viability ([2]; first compound 0.5 µM) was 1.07.
With NCI-H2228 the relative viability (CUDC-101 + Palbociclib; first compound 0.01 µM) was 0.891, the relative viability (CUDC-101 + Palbociclib; first compound 0.03162 µM) was 1.09 and the relative viability (CUDC-101 + Palbociclib; first compound 0.1 µM) was 0.874. For the same cell line, the relative viability (CUDC-101 + Palbociclib; first compound 0.3162 µM) was 0.805, the relative viability (CUDC-101 + Palbociclib; first compound 1 µM) was 0.664 and the relative viability (Vandetanib + Luminespib; first compound 0.02 µM) was 0.153. For the same cell line, the relative viability (Vandetanib + Luminespib; first compound 0.06325 µM) was 0.176, the relative viability (Vandetanib + Luminespib; first compound 0.2 µM) was 0.116 and the relative viability (Vandetanib + Luminespib; first compound 0.6325 µM) was 0.143. For the same cell line, the relative viability (Vandetanib + Luminespib; first compound 2 µM) was 0.116, the relative viability ([1]; first compound 0.005 µM) was 0.725 and the relative viability ([1]; first compound 0.01581 µM) was 1.01. The relative viability ([1]; first compound 0.05 µM) was 1.18, the relative viability ([1]; first compound 0.1581 µM) was 1.46 and the relative viability ([1]; first compound 0.5 µM) was 0.924. For the same cell line, the relative viability ([2]; first compound 0.005 µM) was 0.513, the relative viability ([2]; first compound 0.01581 µM) was 0.715 and the relative viability ([2]; first compound 0.05 µM) was 0.754. It also gave a relative viability ([2]; first compound 0.1581 µM) of 0.818 and a relative viability ([2]; first compound 0.5 µM) of 0.524.
NCI-H1793 was tested, and the relative viability (CUDC-101 + Palbociclib; first compound 0.01 µM) was 0.275, the relative viability (CUDC-101 + Palbociclib; first compound 0.03162 µM) was 0.272 and the relative viability (CUDC-101 + Palbociclib; first compound 0.1 µM) was 0.36. For the same cell line, the relative viability (CUDC-101 + Palbociclib; first compound 0.3162 µM) was 0.253, the relative viability (CUDC-101 + Palbociclib; first compound 1 µM) was 0.247 and the relative viability (Vandetanib + Luminespib; first compound 0.02 µM) was 0.189. It also gave a relative viability (Vandetanib + Luminespib; first compound 0.06325 µM) of 0.14, a relative viability (Vandetanib + Luminespib; first compound 0.2 µM) of 0.159 and a relative viability (Vandetanib + Luminespib; first compound 0.6325 µM) of 0.209. The relative viability (Vandetanib + Luminespib; first compound 2 µM) was 0.166, the relative viability ([1]; first compound 0.005 µM) was 0.748 and the relative viability ([1]; first compound 0.01581 µM) was 0.647. The relative viability ([1]; first compound 0.05 µM) was 0.668, the relative viability ([1]; first compound 0.1581 µM) was 0.828 and the relative viability ([1]; first compound 0.5 µM) was 0.792. It also gave a relative viability ([2]; first compound 0.005 µM) of 0.692, a relative viability ([2]; first compound 0.01581 µM) of 0.521 and a relative viability ([2]; first compound 0.05 µM) of 0.55. It also gave a relative viability ([2]; first compound 0.1581 µM) of 0.763 and a relative viability ([2]; first compound 0.5 µM) of 0.739.
With NCI-H661 the relative viability (CUDC-101 + Palbociclib; first compound 0.01 µM) was 0.382, the relative viability (CUDC-101 + Palbociclib; first compound 0.03162 µM) was 0.381 and the relative viability (CUDC-101 + Palbociclib; first compound 0.1 µM) was 0.388. For the same cell line, the relative viability (CUDC-101 + Palbociclib; first compound 0.3162 µM) was 0.416, the relative viability (CUDC-101 + Palbociclib; first compound 1 µM) was 0.287 and the relative viability (Vandetanib + Luminespib; first compound 0.02 µM) was 0.912. For the same cell line, the relative viability (Vandetanib + Luminespib; first compound 0.06325 µM) was 0.914, the relative viability (Vandetanib + Luminespib; first compound 0.2 µM) was 0.869 and the relative viability (Vandetanib + Luminespib; first compound 0.6325 µM) was 0.934. For the same cell line, the relative viability (Vandetanib + Luminespib; first compound 2 µM) was 0.978, the relative viability ([1]; first compound 0.005 µM) was 0.512 and the relative viability ([1]; first compound 0.01581 µM) was 0.533. It also gave a relative viability ([1]; first compound 0.05 µM) of 0.451, a relative viability ([1]; first compound 0.1581 µM) of 0.519 and a relative viability ([1]; first compound 0.5 µM) of 0.476. For the same cell line, the relative viability ([2]; first compound 0.005 µM) was 0.632, the relative viability ([2]; first compound 0.01581 µM) was 0.482 and the relative viability ([2]; first compound 0.05 µM) was 0.61. The relative viability ([2]; first compound 0.1581 µM) was 0.841 and the relative viability ([2]; first compound 0.5 µM) was 0.798.
In the case of EKVX, the relative viability (CUDC-101 + Palbociclib; first compound 0.01 µM) is reported as 0.374, the relative viability (CUDC-101 + Palbociclib; first compound 0.03162 µM) is reported as 0.335 and the relative viability (CUDC-101 + Palbociclib; first compound 0.1 µM) is reported as 0.336. The relative viability (CUDC-101 + Palbociclib; first compound 0.3162 µM) was 0.405, the relative viability (CUDC-101 + Palbociclib; first compound 1 µM) was 0.323 and the relative viability (Vandetanib + Luminespib; first compound 0.02 µM) was 0.878. For the same cell line, the relative viability (Vandetanib + Luminespib; first compound 0.06325 µM) was 0.86, the relative viability (Vandetanib + Luminespib; first compound 0.2 µM) was 0.956 and the relative viability (Vandetanib + Luminespib; first compound 0.6325 µM) was 0.827. The relative viability (Vandetanib + Luminespib; first compound 2 µM) was 0.65, the relative viability ([1]; first compound 0.005 µM) was 0.237 and the relative viability ([1]; first compound 0.01581 µM) was 0.185. It also gave a relative viability ([1]; first compound 0.05 µM) of 0.201, a relative viability ([1]; first compound 0.1581 µM) of 0.211 and a relative viability ([1]; first compound 0.5 µM) of 0.195. The relative viability ([2]; first compound 0.005 µM) was 0.763, the relative viability ([2]; first compound 0.01581 µM) was 0.981 and the relative viability ([2]; first compound 0.05 µM) was 0.902. For the same cell line, the relative viability ([2]; first compound 0.1581 µM) was 0.844 and the relative viability ([2]; first compound 0.5 µM) was 0.69.

Source: the supplement of paper PMC10307832
